Legend:
[1] = Permeability of the compound assessed as molar fraction in donor well at 0.5 mM measured after 16 hrs by PAMPA; type: ADME; details: 500 µM
[2] = Permeability of the compound assessed as molar fraction in donor well at 0.5 mM measured after 2 hrs by PAMPA; type: ADME; details: 500 µM
[3] = Permeability of the compound assessed as molar fraction in acceptor well at 0.5 mM measured after 16 hrs by PAMPA; type: ADME; details: 500 µM
[4] = Permeability of the compound assessed as molar fraction in acceptor well at 0.5 mM measured after 2 hrs by PAMPA; type: ADME; details: 500 µM
[5] = n-Octanol/water partition coefficient, log P of the compound by UV-RP-HPLC analysis; type: physicochemical
[6] = Permeability of the compound assessed as molar fraction in membrane at 0.5 mM measured after 2 hrs by PAMPA; type: ADME; details: 500 µM
[7] = Permeability of the compound assessed as molar fraction in membrane at 0.5 mM measured after 16 hrs by PAMPA; type: ADME; details: 500 µM
[8] = Permeability of the compound assessed as molar fraction in donor well at 0.5 mM measured immediately by PAMPA; type: ADME; details: 500 µM
[9] = Permeability of the compound assessed as rate constant for partitioning to the membrane by PAMPA; type: ADME
[10] = Permeability of the compound assessed as rate constant for coming off the membrane by PAMPA; type: ADME
[11] = Permeability of the compound assessed as ratio of Kin to Kout by PAMPA; type: ADME
[12] = Permeability of the compound by PAMPA
Lipid bilayer = test: Binding affinity to POPC liposome membrane assessed as intrinsic dipolar splitting (D) at <1 mg by solid-state 19F NMR spectra analysis
[13] = n-Octanol/water partition coefficient, log P of the compound by RP-HPLC analysis; type: physicochemical

Structure (SMILES) | permeability [1] [%] | permeability [2] [%] | permeability [3] [%] | permeability [4] [%] | logP [5] | permeability [6] [%] | permeability [7] [%] | permeability [8] [%] | K [9] [×10⁻⁵ /s] | K [10] [×10⁻⁷ /s] | Ratio [11] | Papp [12] [×10⁻⁶ cm/s] | D (Lipid bilayer) [kHz] | logP [13]
CO/C1=C\C(C)=C\[C@@H](C)[C@@H](O)[C@@H](C)C/C(C)=C/C=C/[C@H](OC)[C@@H]([C@@H](C)[C@@H](O)[C@H](C)[C@@]2(O)C[C@@H](O)[C@H](C)[C@@H](C(C)C)O2)OC1=O [BAFILOMYCIN A1] | 11 | 27.4 | -1.5 | 4.8 | 4.74 | 67.9 | 90.5 | 100 | 20.7 | 3.25 | 1170 | – | – | –
Cn1c(=O)c2[nH]cnc2n(C)c1=O.O [THEOPHYLLINE] | – | – | – | – | – | – | – | – | – | – | – | 0.0848 | – | –
CO/C1=C\C(C)=C\[C@@H](C)[C@@H](O)[C@@H](C)C/C(C)=C/C=C/[C@H](OC)[C@@H]([C@@H](C)[C@@H](O)[C@H](C)[C@@]2(O)C[C@@H](O)[C@H](C)[C@@H](C(F)(F)F)O2)OC1=O | 16.6 | 52.2 | -0.2 | -0.5 | 4.54 | 48.3 | 83.7 | 100 | 9.55 | 2.47 | 393 | – | 2.9 | –
CO/C1=C\C(C)=C\C[C@@H](O)CC/C(C)=C/C=C/[C@H](OC)[C@@H]([C@@H](C)[C@@H](O)[C@H](C)[C@@]2(O)C[C@@H](O)[C@H](C)[C@@H](C(F)(F)F)O2)OC1=O | 30.2 | 63.4 | 6.7 | 2.8 | 2.81 | 33.7 | 63.1 | 100 | 7.08 | 5.91 | 143 | – | 2.4 | –
OC/C=C/c1ccccc1 [CINNAMIC ALCOHOL] | – | – | – | – | – | – | – | – | – | – | – | – | – | 1.9
Cc1ccc(C(=O)c2ccc(C)cc2)cc1 | – | – | – | – | 3.84 | – | – | – | – | – | – | – | – | –
Cc1c(Cl)cccc1Cl | – | – | – | – | – | – | – | – | – | – | – | – | – | 4.29

— ChEMBL document CHEMBL4400572, “Small structural alterations greatly influence the membrane affinity of lipophilic ligands: Membrane interactions of bafilomycin A1 and its desmethyl derivative bearing 19F-labeling” (Bioorg Med Chem, 2019)
